Reference: the supplement of paper PMC10307832

Key:
Assay in all cases: relative viability (nuclei count vs DMSO), 5 days (fraction); higher = more cells survive
[1] = compound: CC1=C(C(=NN1)C)CC2=C(C3=C(S2)N(C(=O)N(C3=O)C)CC(C)C)C(=O)N4C[C@@H](CO4)O + CS(=O)(=O)CCNCc1ccc(-c2ccc3ncnc(Nc4ccc(OCc5cccc(F)c5)c(Cl)c4)c3c2)o1 [Lapatinib] (partner 2 µM)
In short: (§1)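 Values are medians from duplicate plates. Each reflects relative viability, defined as the nuclei count of treated wells over that of vehicle wells. Lung cancer cell lines in 1536-well plates were pin-tool dosed one day after seeding with one drug alone or with a fixed anchor-drug dose plus five library-drug doses (not always all listed) in √10 steps, then fixed, stained and imaged at 4× after 5 days.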

[2] = compound: CC1=C(C(=NN1)C)CC2=C(C3=C(S2)N(C(=O)N(C3=O)C)CC(C)C)C(=O)N4C[C@@H](CO4)O + C[C@]1(O)C[C@@H](c2nc(-c3ccc4ccc(-c5ccccc5)nc4c3)c3c(N)nccn32)C1 [Linsitinib] (partner 1 µM)
In short: as §1

IDH-C35 + Trametinib = compound: Cc1ccccc1C(C(=O)NC1CCCCC1)N(C(=O)Cn1ccnc1C)c1cccc(F)c1 [IDH-C35] + CC(=O)Nc1cccc(-n2c(=O)n(C3CC3)c(=O)c3c(Nc4ccc(I)cc4F)n(C)c(=O)c(C)c32)c1 [Trametinib] (partner 0.02 µM)
In short: as §1

IDH-C35 + Vorinostat = compound: Cc1ccccc1C(C(=O)NC1CCCCC1)N(C(=O)Cn1ccnc1C)c1cccc(F)c1 [IDH-C35] + O=C(CCCCCCC(=O)Nc1ccccc1)NO [Vorinostat] (partner 1 µM)
In short: as §1

## UMC-11
[1]; first compound 0.0025 µM
  relative viability: 1.12
[1]; first compound 0.007906 µM
  relative viability: 1.03
[1]; first compound 0.025 µM
  relative viability: 0.957
[1]; first compound 0.07906 µM
  relative viability: 1.01
[1]; first compound 0.25 µM
  relative viability: 1.05
[2]; first compound 0.0025 µM
  relative viability: 1.01
[2]; first compound 0.007906 µM
  relative viability: 1
[2]; first compound 0.025 µM
  relative viability: 0.845
[2]; first compound 0.07906 µM
  relative viability: 0.793
[2]; first compound 0.25 µM
  relative viability: 0.767
IDH-C35 + Trametinib; first compound 0.08 µM
  relative viability: 0.738
IDH-C35 + Trametinib; first compound 0.253 µM
  relative viability: 0.761
IDH-C35 + Trametinib; first compound 0.8 µM
  relative viability: 0.617
IDH-C35 + Trametinib; first compound 2.53 µM
  relative viability: 0.685
IDH-C35 + Trametinib; first compound 8 µM
  relative viability: 0.772
IDH-C35 + Vorinostat; first compound 0.08 µM
  relative viability: 0.373
IDH-C35 + Vorinostat; first compound 0.253 µM
  relative viability: 0.468
IDH-C35 + Vorinostat; first compound 0.8 µM
  relative viability: 0.435
IDH-C35 + Vorinostat; first compound 2.53 µM
  relative viability: 0.434
IDH-C35 + Vorinostat; first compound 8 µM
  relative viability: 0.46
